The term IC50 denotes the midpoint of a concentration-inhibition curve. High values mean weaker potency, low ones greater potency.

This assay has as its target T1, tyrosinase.
T1 construct: gene PPO1
As to the kind of experiment: absorbance at […] nm, tyrosinase inhibition in 96-well plate. It counts as biochemical. The conditions noted are these: L-tyrosine substrate ([…] µL of […] in […] µL), phosphate buffer pH […], room temperature, […] min.

The structures appear in SMILES notation.

The molecule `COc1cc(C(CO)C(c2ccc(O)c(OC)c2)c2ccc(O)c(OC)c2)ccc1O` (stereo not shown) [quebecol] returned an IC50 of 1030 nM.

The values above are taken from publication PMC9858213, “What Is Authentic Maple Water? A Twelve-Month Shelf-Life Study of the Chemical Composition of Maple Water and Its Biological Activities” (Foods, 2023).
